What all share (test): AK assay 384-well format, Prestwick library screening
Assay [1] has as its system E. faecium. The assay is classed as cell-based, Enterococcus faecium. As to conditions: 50 μM final drug concentration; for fold induction at 50 µM: Enterococcus faecium, 3 h; for AK-based Prestwick Library Screening Results: E. faecium (increase in extracellular AK activity): 384-well.
Assay [2] relates to S. aureus strain USA300-0114. The assay is classed as cell-based, Staphylococcus aureus. As to conditions: 50 μM final drug concentration; for fold induction at 50 µM: Staphylococcus aureus, USA300, 3 h; for AK-based Prestwick Library Screening Results: S. aureus (increase in extracellular AK activity): 384-well.
Assay [3] concerns K. pneumoniae. In kind it is cell-based, Klebsiella pneumoniae. As to conditions: 50 μM final drug concentration; for fold induction at 50 µM: Klebsiella pneumoniae, 3 h; for AK-based Prestwick Library Screening Results: K. pneumoniae (increase in extracellular AK activity): 384-well.
For assay [4], the system named is A. baumannii strain 98-37-09. The assay is classed as cell-based, Acinetobacter baumannii. Conditions: 50 μM final drug concentration; for fold induction at 50 µM: Acinetobacter baumannii, 983709, 3 h; for AK-based Prestwick Library Screening Results: A. baumannii (increase in extracellular AK activity): 384-well.
For assay [5], the system named is P. aeruginosa. In kind it is cell-based, Pseudomonas aeruginosa. Conditions: 50 μM final drug concentration; for fold induction at 50 µM: Pseudomonas aeruginosa, 3 h; for AK-based Prestwick Library Screening Results: P. aeruginosa (increase in extracellular AK activity): 384-well.
Assay [6] has as its system E. cloacae. The assay is classed as cell-based, Enterobacter cloacae. Conditions: 50 μM final drug concentration; for fold induction at 50 µM: Enterobacter cloacae, 3 h; for AK-based Prestwick Library Screening Results: E. cloacae (increase in extracellular AK activity): 384-well.
The test system of assay [7] is E. coli. In kind it is cell-based, Escherichia coli. As to conditions: 50 μM final drug concentration; for fold induction at 50 µM: Escherichia coli, 3 h; for AK-based Prestwick Library Screening Results: E. coli (increase in extracellular AK activity): 384-well.
Setting [8] is: planktonic E. coli, […], read-out: AK-based Prestwick library screening result, E. coli (fold increase in extracellular AK activity).
[9] abbreviates: planktonic, cutoff for positive-scoring molecules 3-fold increase.
Where [10] appears, read: planktonic E. faecium, positive cutoff 3-fold increase, read-out: AK-based Prestwick library screening result, E. faecium (fold increase in extracellular AK activity).
Setting [11] is: planktonic S. aureus, positive cutoff 3-fold increase, read-out: AK-based Prestwick library screening result, S. aureus (fold increase in extracellular AK activity).
Where [12] appears, read: planktonic K. pneumoniae, positive cutoff 3-fold increase, read-out: AK-based Prestwick library screening result, K. pneumoniae (fold increase in extracellular AK activity).
The mark [13] stands for this setting: planktonic A. baumannii, positive cutoff 3-fold increase, read-out: AK-based Prestwick library screening result, A. baumannii (fold increase in extracellular AK activity).
The mark [14] stands for this setting: planktonic P. aeruginosa, positive cutoff 3-fold increase, read-out: AK-based Prestwick library screening result, P. aeruginosa (fold increase in extracellular AK activity).
[15] abbreviates: planktonic E. cloacae, positive cutoff 3-fold increase, read-out: AK-based Prestwick library screening result, E. cloacae (fold increase in extracellular AK activity).
Setting [16] is: cutoff for positive-scoring molecules 3-fold increase.

The record followed here is patent publication US10004701B2, “Methods and compositions for treating infection” (UNIVERSITY OF ROCHESTER, priority 2012, dated 2018).

Where a name gives a salt, the structure may show the parent alone. Read-outs that look alike come from different tables or passages of the source. Where a SMILES comes first, the peptide text is derived from it. [ ]: non-standard residue; d: D form. The star is where a group is joined. Sta = CC(C)C[C@H](N)[C@@H](O)CC(=O)O; Isovaleryl = CC(C)CC(=O)*

For `CN(C)[C@@H]1C(O)=C(C(=O)NCNCCCC[C@H](N)C(=O)O)C(=O)[C@@]2(O)C(O)=C3C(=O)c4c(O)cccc4[C@@](C)(O)[C@H]3C[C@@H]12` [Lymecycline], the fold induction at 50 µM in assay [1] (planktonic E. faecium, […], read-out: AK-based Prestwick library screening result, E. faecium (fold increase in extracellular AK activity)) came to 1; in assay [2] (planktonic S. aureus, […], read-out: AK-based Prestwick library screening result, S. aureus (fold increase in extracellular AK activity)), 0.7; in assay [3] (planktonic K. pneumoniae, […], read-out: AK-based Prestwick library screening result, K. pneumoniae (fold increase in extracellular AK activity)), 0.7; in assay [4] (planktonic A. baumannii, […], read-out: AK-based Prestwick library screening result, A. baumannii (fold increase in extracellular AK activity)), 0.8; in assay [5] (planktonic P. aeruginosa, […], read-out: AK-based Prestwick library screening result, P. aeruginosa (fold increase in extracellular AK activity)) it was 0.7; in assay [6] (planktonic E. cloacae, […], read-out: AK-based Prestwick library screening result, E. cloacae (fold increase in extracellular AK activity)), 1.2. The fold induction at 50 µM in assay [7] (setting [8]) was 0.8.
In the case of `CN(N=O)C(=O)N[C@H]1C(O)O[C@H](CO)[C@@H](O)[C@@H]1O` (mixture of isomers) [Streptozotocin], the “AK-based Prestwick Library Screening Results, E. faecium (fold increase in extracellular AK activity)” value in assay [1] (setting [9]) was determined as 2.6. Also, the “AK-based Prestwick Library Screening Results, S. aureus (fold increase in extracellular AK activity)” value in assay [2] (setting [9]) came to 1.2. Also, the “AK-based Prestwick Library Screening Results, K. pneumoniae (fold increase in extracellular AK activity)” value in assay [3] (setting [9]) amounted to 1.4. Moreover, the “AK-based Prestwick Library Screening Results, A. baumannii (fold increase in extracellular AK activity)” value in assay [4] (setting [9]) is given as 0.7. The “AK-based Prestwick Library Screening Results, P. aeruginosa (fold increase in extracellular AK activity)” value in assay [5] (setting [9]) turned out to be 0.7. Besides, the “AK-based Prestwick Library Screening Results, E. cloacae (fold increase in extracellular AK activity)” value in assay [6] (setting [9]) is given as 0.7. For the same molecule, in assay [7] (setting [9]), the “AK-based Prestwick Library Screening Results, E. coli (fold increase in extracellular AK activity)” value worked out at 0.7.
As for `Cc1onc(-c2ccccc2Cl)c1C(=O)N[C@@H]1C(=O)N2[C@@H]1SC(C)(C)[C@@H]2C(=O)O` [Cloxacillin sodium salt], the fold induction at 50 µM in assay [1] (384-well format, cutoff for positive-scoring molecules 3-fold increase, read-out: AK-based Prestwick Library Screening Results, E. faecium (increase in extracellular AK activity)) is 1; in assay [2] (384-well format, cutoff for positive-scoring molecules 3-fold increase, read-out: AK-based Prestwick Library Screening Results, S. aureus (increase in extracellular AK activity)), 5.3; in assay [3] (384-well format, cutoff for positive-scoring molecules 3-fold increase, read-out: AK-based Prestwick Library Screening Results, K. pneumoniae (increase in extracellular AK activity)), 0.7; in assay [4] (384-well format, cutoff for positive-scoring molecules 3-fold increase, read-out: AK-based Prestwick Library Screening Results, A. baumannii (increase in extracellular AK activity)) it was 1.3; in assay [5] (384-well format, cutoff for positive-scoring molecules 3-fold increase, read-out: AK-based Prestwick Library Screening Results, P. aeruginosa (increase in extracellular AK activity)) it was 1; in assay [6] (384-well format, cutoff for positive-scoring molecules 3-fold increase, read-out: AK-based Prestwick Library Screening Results, E. cloacae (increase in extracellular AK activity)) it was 1. Besides, the fold induction at 50 µM in assay [7] (384-well format, cutoff for positive-scoring molecules 3-fold increase, read-out: AK-based Prestwick Library Screening Results, E. coli (increase in extracellular AK activity)) came out at 1.
For the molecule `CC(=O)O[C@H]1C[C@@H]2CC[C@@H]3[C@H](CC[C@@]4(C)[C@H]3C[C@H]([N+]3(C)CCCCC3)[C@@H]4OC(C)=O)[C@@]2(C)C[C@@H]1[N+]1(C)CCCCC1` [Pancuronium bromide], the fold induction at 50 µM in assay [1] (setting [10]) came out at 1; in assay [2] (setting [11]), 1.1; in assay [3] (setting [12]) it was 1; in assay [4] (setting [13]), 1.1; in assay [5] (setting [14]), 0.9; in assay [6] (setting [15]), 1.6. Moreover, the fold induction at 50 µM in assay [7] (setting [8]) was 1.1.
Ifenprodil tartrate: the “AK-based Prestwick Library Screening Results: E. faecium (increase in extracellular AK activity)” value in assay [1] (planktonic E. faecium, cutoff for positive-scoring molecules 3-fold increase) stood at 1.0. The “AK-based Prestwick Library Screening Results: S. aureus (increase in extracellular AK activity)” value in assay [2] (planktonic S. aureus, cutoff for positive-scoring molecules 3-fold increase) turned out to be 1.1. Besides, the “AK-based Prestwick Library Screening Results: K. pneumoniae (increase in extracellular AK activity)” value in assay [3] (planktonic K. pneumoniae, cutoff for positive-scoring molecules 3-fold increase) came to 1.3. Also, in assay [4] (planktonic A. baumannii, cutoff for positive-scoring molecules 3-fold increase), the “AK-based Prestwick Library Screening Results: A. baumannii (increase in extracellular AK activity)” value was 1.4. The “AK-based Prestwick Library Screening Results: P. aeruginosa (increase in extracellular AK activity)” value in assay [5] (planktonic P. aeruginosa, cutoff for positive-scoring molecules 3-fold increase) was determined as 1.2. For the same molecule, the “AK-based Prestwick Library Screening Results: E. cloacae (increase in extracellular AK activity)” value in assay [6] (planktonic E. cloacae, cutoff for positive-scoring molecules 3-fold increase) is on record as 1.3. For the same molecule, the “AK-based Prestwick Library Screening Results: E. coli (increase in extracellular AK activity)” value in assay [7] (planktonic E. coli, cutoff for positive-scoring molecules 3-fold increase) worked out at 1.2.
Regarding `CC(C)CC(=O)N[C@H](C(=O)N[C@H](C(=O)N[C@@H](CC(C)C)[C@@H](O)CC(=O)N[C@@H](C)C(=O)N[C@@H](CC(C)C)[C@@H](O)CC(=O)O)C(C)C)C(C)C` [Pepstatin A] (Isovaleryl-VV[Sta]A[Sta]-OH), in assay [1] (planktonic E. faecium, […]), the “AK-based Prestwick Library Screening Results: E. faecium (increase in extracellular AK activity)” value turned out to be 0.8. For the same molecule, the “AK-based Prestwick Library Screening Results: S. aureus (increase in extracellular AK activity)” value in assay [2] (planktonic S. aureus, […]) is listed as 0.4. Also, the “AK-based Prestwick Library Screening Results: K. pneumoniae (increase in extracellular AK activity)” value in assay [3] (planktonic K. pneumoniae, […]) is on record as 0.5. Besides, the “AK-based Prestwick Library Screening Results: A. baumannii (increase in extracellular AK activity)” value in assay [4] (planktonic A. baumannii, […]) was found to be 0.4. Also, the “AK-based Prestwick Library Screening Results: P. aeruginosa (increase in extracellular AK activity)” value in assay [5] (planktonic P. aeruginosa, […]) stood at 0.4. Further, in assay [6] (planktonic E. cloacae, […]), the “AK-based Prestwick Library Screening Results: E. cloacae (increase in extracellular AK activity)” value was determined as 0.4. Also, the “AK-based Prestwick Library Screening Results: E. coli (increase in extracellular AK activity)” value in assay [7] (planktonic E. coli, […]) is given as 0.5.
`O=c1c(O)c(-c2ccc(O)cc2)oc2cc(O)cc(O)c12` [Kaempferol]: the fold induction at 50 µM in assay [1] (setting [10]) was determined as 1; in assay [2] (setting [11]), 0.2; in assay [3] (setting [12]), 0.6; in assay [4] (setting [13]) it was 0.5; in assay [5] (setting [14]), 0.6; in assay [6] (setting [15]), 1.6. Further, the fold induction at 50 µM in assay [7] (planktonic E. coli, positive cutoff 3-fold increase, read-out: AK-based Prestwick library screening result, E. coli (fold increase in extracellular AK activity)) is 0.5.
Take `C[C@H]1NC(=O)NC1=O` [Methylhydantoin-5-(D)]: the “AK-based Prestwick Library Screening Results, E. faecium (fold increase in extracellular AK activity)” value in assay [1] (setting [16]) is on record as 1.0. Besides, in assay [2] (setting [16]), the “AK-based Prestwick Library Screening Results, S. aureus (fold increase in extracellular AK activity)” value is given as 1.2. Moreover, the “AK-based Prestwick Library Screening Results, K. pneumoniae (fold increase in extracellular AK activity)” value in assay [3] (setting [16]) was determined as 1.1. In addition, in assay [4] (setting [16]), the “AK-based Prestwick Library Screening Results, A. baumannii (fold increase in extracellular AK activity)” value was 1.3. Moreover, the “AK-based Prestwick Library Screening Results, P. aeruginosa (fold increase in extracellular AK activity)” value in assay [5] (setting [16]) is reported as 1.2. Moreover, in assay [6] (setting [16]), the “AK-based Prestwick Library Screening Results, E. cloacae (fold increase in extracellular AK activity)” value was determined as 1.5. The “AK-based Prestwick Library Screening Results, E. coli (fold increase in extracellular AK activity)” value in assay [7] ([…]) is on record as 1.2.
As to `O=C1C=CC(=O)c2c1ccc1c2ccc2ccccc21` [Chrysene-1,4-quinone], the fold induction at 50 µM in assay [1] (planktonic, […], read-out: AK-based Prestwick Library Screening Results, E. faecium (fold increase in extracellular AK activity)) was 0.9; in assay [2] (planktonic, […], read-out: AK-based Prestwick Library Screening Results, S. aureus (fold increase in extracellular AK activity)), 0.1; in assay [3] (planktonic, […], read-out: AK-based Prestwick Library Screening Results, K. pneumoniae (fold increase in extracellular AK activity)), 0.8; in assay [4] (planktonic, […], read-out: AK-based Prestwick Library Screening Results, A. baumannii (fold increase in extracellular AK activity)) it was 0.8; in assay [5] (planktonic, […], read-out: AK-based Prestwick Library Screening Results, P. aeruginosa (fold increase in extracellular AK activity)) it was 1; in assay [6] (planktonic, […], read-out: AK-based Prestwick Library Screening Results, E. cloacae (fold increase in extracellular AK activity)) it was 1.4. For the same molecule, the fold induction at 50 µM in assay [7] (planktonic, […], read-out: AK-based Prestwick Library Screening Results, E. coli (fold increase in extracellular AK activity)) was determined as 1.1.
